According to patent publication US6331642A, “Vitamin D3 analogs” (Hoffmann-La Roche Inc., priority 2000, dated 2001):

Key:
[1] = system: ventral prostate; assay: Antiandrogenic activity in castrated testosterone stimulated hamsters, ventral prostate; format: in vivo, male Syrian hamsters; details: testosterone 20 μg s.c. daily, 14 days; vehicle 12 ± 1
Experimental: (§1) 1,25(OH)2 -16-ene-5,6-trans D3 was evaluated for antiandrogenic activity in castrated, testosterone stimulated male Syrian hamsters.
(§2) […] Both compounds were administered in a vehicle of 0.2 ml sesame oil each. Necropsy was performed on day 15. The prostate and seminal vesicles were removed, blotted and weighed. Data were analyzed for statistical significance using the Student's t-test and are expressed as percent inhibition of stimulated response.

[2] = system: seminal vesicles; assay: Antiandrogenic activity in castrated testosterone stimulated hamsters, seminal vesicles; format: in vivo, male Syrian hamsters; details: testosterone 20 μg s.c. daily, 14 days; vehicle 36 ± 3; mg ± SEM
Experimental: as §1, §2

Question: For `CCC(=O)O[C@H]1CC[C@H]2[C@@H]3CCC4=CC(=O)CC[C@]4(C)[C@H]3CC[C@]12C` [Testosterone, testosterone propionate, reference compound], which Ventral prostate weight [1] is on record?
Answer: Its Ventral prostate weight is 43 ± 5 mg.

Question: And the Seminal vesicles weight [2]?
Answer: Its Seminal vesicles weight is 105 ± 6 mg.
